Test system: human IgG in mouse serum
Assay: Immunoglobulin G (IgG) mRNA in vivo evaluation using lipid nanoparticle compositions (human IgG ELISA of mouse serum)
Design: species or system CD-1/ICR mice
Details: LNP with cationic lipid/DSPC/cholesterol/PEG lipid, tail vein injection, mouse serum 24 hours after administration; for Serum IgG (μg/mL) @ 0.3 mg/kg: IgG mRNA 0.3 mg mRNA/kg; for Serum IgG (μg/mL) @ 1.0 mg/kg: IgG mRNA 1.0 mg mRNA/kg
Experimental: A lipid of Formula (I), DSPC, cholesterol and PEG-lipid of Formula (II) are solubilized in ethanol at a molar ratio of 50:10:38.5:1.5 or 47.5:10:40.7:1.8. Lipid nanoparticles (LNP) are prepared at a total lipid to mRNA weight ratio of approximately 10:1 to 40:1. Briefly, the mRNA is diluted to 0.2 mg/mL in 10 to 50 mM citrate buffer, pH 4 to 6 or 10 to 25 mM acetate buffer, pH 4 to 6. Syringe pumps are used to mix the ethanolic lipid solution with the mRNA aqueous solution at a ratio of about 1:5 to 1:3 (vol/vol) with total flow rates above 15 mL/min. The ethanol is then removed, and the external buffer replaced with PBS by dialysis. Finally, the lipid nanoparticles are filtered through a 0.2 μm pore sterile filter.
Studies are performed in 6-8-week-old CD-1/ICR mice (Charles River or Inotiv) according to guidelines established by an institutional animal care committee (ACC) and the Canadian Council on Animal Care (CCAC). Varying doses of mRNA-lipid nanoparticle are systemically administered by tail vein injection and animals euthanized at a specific time point (e.g., 24 hours) post-administration. The whole blood is collected, and the serum subsequentially separated by centrifuging the tubes of the whole blood at 2000×g for 10 minutes at 4° C. and stored at −80° C. until use for analysis.
For immunoglobulin G (IgG) ELISA (Life Diagnostics Human IgG ELISA kit), the serum samples are diluted at 100 to 20,000 folds with 1× diluent solution. 100 μL of diluted serum is dispensed into anti-human IgG coated 96-well plate in duplicate alongside human IgG standards and incubated in a plate shaker at 150 rpm at 25° C. for 45 minutes. The wells are washed 5 times with 1× wash solution using a plate washer (400 μL/well). 100 μL of HRP conjugate is added into each well and incubated in a plate shaker at the same condition above. The wells are washed 5 times again with 1× wash solution using a plate washer (400 μL/well). 100 μL of TMB reagent is added into each well and incubated in a plate shaker at the same condition above. The reaction is stopped by adding 100 μL of Stop solution to each well. The absorbance is read at 450 nm (A450) with a microplate reader. The amount of human IgG in mouse serum is determined by plotting A450 values for the assay standard against human IgG concentration.
Representative compounds of the disclosure shown in Table 2 were formulated using the following molar ratio: 50% cationic lipid/10% distearoylphosphatidylcholine (DSPC)/38.5% Cholesterol/1.5% PEG lipid 2-[2-(ω-methoxy(polyethyleneglycol2000)ethoxy]-N,N-ditetradecylacetamide) or 47.5% cationic lipid/10% DSPC/40.7% Cholesterol/1.8% PEG lipid. Relative activity was determined by measuring the amount of human IgG in mouse serum as described in Example 1. The activity was compared at a dose of 1.0 or 0.3 mg mRNA/kg and expressed as ng luciferase/g liver measured 4 hours after administration, as described in Example 1 or as μg IgG/mL serum measured 24 hours after administration, as described in Example 2. Compound numbers in Table 2 refer to the compound numbers of Table 1.

SMILES	Serum IgG (μg/mL) @ 0.3 mg/kg [µg/mL]	Serum IgG (μg/mL) @ 1.0 mg/kg [µg/mL]
CCCCCCCCCCN(CCCCCCCCCC)C(=O)CCCCCCCN(CCCCCO)CCCCCCCCOC(=O)OCC(CC)CCCC (stereo not shown) [Compound I-11, 8-((8-(didecylamino)-8-oxooctyl)(5-hydroxypentyl)amino)octyl (2-ethylhexyl) carbonate]	39.6 ± 6.3	
CCCCCCCCCCC(CCCCCCCCCC)OC(=O)OCCCCCN(CCCCCO)CCCCCCCC(=O)N(CCCCCCCCCC)CCCCCCCCCC [Compound I-15, 5-((8-(didecylamino)-8-oxooctyl)(5-hydroxypentyl)amino)pentyl henicosan-11-yl carbonate]	7.8 ± 4.0	
CCCCCCCCCCN(CCCCCCCCCC)C(=O)CCCCCCCN(CCCCCO)CCCCCCCCOC(=O)OCC(CCCC)CCCCCC (stereo not shown) [Compound I-12, 2-butyloctyl (8-((8-(didecylamino)-8-oxooctyl)(5-hydroxypentyl)amino)octyl) carbonate]	19.7 ± 6.8	
CCCCCCCCC(CCCCCCCC)OC(=O)OCCCCCCCN(CCCCCO)CCCCCCCCCC(=O)N(CCCCCCCC)CCCCCCCC [Compound I-20, 7-((10-(dioctylamino)-10-oxodecyl)(5-hydroxypentyl)amino)heptyl heptadecan-9-yl carbonate]	51.4 ± 12.8	
CCCCCCCCCCN(CCCCCCCCCC)C(=O)CCCCCCCN(CCCCCO)CCCCCCCOC(=O)OC(CCCCCCCC)CCCCCCCC [Compound I-18, 7-((8-(didecylamino)-8-oxooctyl)(5-hydroxypentyl)amino)heptyl heptadecan-9-yl carbonate]	51.5 ± 9.5	290.2 ± 50.5
CCCCCCCCCCOC(=O)OCCCCCCCCN(C)CCCCCCCC(=O)N(CCCCCCCCCC)CCCCCCCCCC [Compound I-2, decyl (8-((8-(didecylamino)-8-oxooctyl)(methyl)amino)octyl) carbonate]	22.3 ± 7.8	134.9 ± 26.6
CCCCCCCCCCN(CCCCCCCCCC)C(=O)CCCCCCCN(CCCCCO)CCCCCOC(=O)OC(CCCC)CCCC [Compound I-16, 5-((8-(didecylamino)-8-oxooctyl)(5-hydroxypentyl)amino)pentyl nonan-5-yl carbonate]	18.5 ± 2.7	75.4 ± 53.7
CCCCCCCCCCN(CCCCCCCCCC)C(=O)CCCCCCCCC(CCCCCCCCC(=O)OCC(CCCC)CCCCCC)N(CCCCCCCCCC)C(=O)CCN(C)C (stereo not shown) [Compound I-8, 2-butyloctyl 10-(N-decyl-3-(dimethylamino)propanamido)-19-(didecylamino)-19-oxononadecanoate]	21.7 ± 4.3	232.4 ± 42.5
CCCCCCCCCCN(CCCCCCCCCC)C(=O)CCCCCCCCC(CCCCCCCCC(=O)OCC(CCCC)CCCCCC)N(CCCCCCCC)C(=O)CCCN1CCCC1 (stereo not shown) [Compound I-24, 2-butyloctyl 19-(didecylamino)-10-(n-octyl-4-(pyrrolidin-1-yl)butanamido)-19-oxononadecanoate]	25.1 ± 7.7	
CCCCCCCCCCCCN(CCCCCCCCCCCC)C(=O)CCCCCN(CCCCCO)CCCCCCCOC(=O)OC(CCCCCCCC)CCCCCCCC [Compound I-21, 7-((6-(didodecylamino)-6-oxohexyl)(5-hydroxypentyl)amino)heptyl heptadecan-9-yl carbonate]	9.7 ± 3.3	
CCCCCCCCCCC(CCCCCCCCCC)OC(=O)OCCCCCCCCCN(CCCCCO)CCCCCCCC(=O)N(CCCCCCCCCC)CCCCCCCCCC [Compound I-13, 9-((8-(didecylamino)-8-oxooctyl)(5-hydroxypentyl)amino)nonyl henicosan-11-yl carbonate]	18.2 ± 3.3	143.2 ± 23.9
CCCCCCCCCCN(CCCCCCCCCC)C(=O)CCCCCCCN(CCCCCO)CCCCCCCCOC(=O)OC(CCCCCCC)CCCCCCC [Compound I-3, 8-((8-(didecylamino)-8-oxooctyl)(5-hydroxypentyl)amino)octylpentadecan-8-yl carbonate]	30.1 ± 2.1	173.3 ± 9.3
CCCCCCCCCCN(CCCCCCCCCC)C(=O)CCCCCCCN(CCCCCO)CCCCCCCCOC(=O)OCC(CCCCCC)CCCCCCCC (stereo not shown) [Compound I-19, 8-((8-(didecylamino)-8-oxooctyl)(5-hydroxypentyl)amino)octyl (2-hexyldecyl) carbonate]	25.1 ± 4.2	184.5 ± 40.2
CCCCCCCCCCN(CCCCCCCCCC)C(=O)CCCCCCCN(C)CCCCCCCCOC(=O)OC(CCCCCCC)CCCCCCC [Compound I-4, 8-((8-(didecylamino)-8-oxooctyl)(methyl)amino)octylpentadecan-8-yl carbonate]	8.5 ± 2.0	73.6 ± 15.6
CCCCCCCCCCN(CCCCCCCCCC)C(=O)CCCCCCCN(CCCCCO)CCCCCCCCCOC(=O)OC(CCCCCC)CCCCCC [Compound I-17, 9-((8-(didecylamino)-8-oxooctyl)(5-hydroxypentyl)amino)nonyl tridecan-7-yl carbonate]	20.1 ± 6.7	
CCCCCCCCC(CCCCCCCC)OC(=O)OCCCCCCCN(CCCCCO)CCCCCCCC(=O)N(CCCCCCCC)CCCCCCCC [Compound I-23, 7-((8-(dioctylamino)-8-oxooctyl)(5-hydroxypentyl)amino)heptyl heptadecan-9-yl carbonate]	34.8 ± 12.3	
CCCCCCCCCCCCN(CCCCCCCCCCCC)C(=O)CCCCCCCN(CCCCCO)CCCCCCCOC(=O)OC(CCCCCCCC)CCCCCCCC [Compound I-22, 7-((8-(didodecylamino)-8-oxooctyl)(5-hydroxypentyl)amino)heptyl heptadecan-9-yl carbonate]	22.8 ± 11.0	
CCCCCCCCCCN(CCCCCCCCCC)C(=O)CCCCCCCN(CCCCCO)CCCCCCCCCOC(=O)OC(CCCC)CCCC [Compound I-14, 9-((8-(didecylamino)-8-oxooctyl)(5-hydroxypentyl)amino)nonyl nonan-5-yl carbonate]	37.0 ± 18.5	280.8 ± 86.6
CCCCCCCCCCN(CCCCCCCCCC)C(=O)CCCCCCCCC(CCCCCCCCC(=O)OCC(CCCC)CCCCCC)N(CCCCCCCCCC)C(=O)CCCN(C)C (stereo not shown) [Compound I-25, 2-butyloctyl 10-(n-decyl-4-(dimethylamino)butanamido)-19-(didecylamino)-19-oxononadecanoate]	9.3 ± 1.7	68.3 ± 13.4
CCCCCCCCCCOC(=O)OCCCCCCCCN(CCCCCO)CCCCCCCC(=O)N(CCCCCCCCCC)CCCCCCCCCC [Compound I-1, decyl (8-((8-(didecylamino)-8-oxooctyl)(5-hydroxypentyl)amino)octyl) carbonate]	15.6 ± 5.1	121.5 ± 33.1

From patent US20240423915A1, “LIPIDS FOR USE IN LIPID NANOPARTICLES” (Acuitas Therapeutics, Inc., priority 2023, published 2024)
